Assay results taken from article PMC5979531, “Structural Requirements of Alkylglyceryl-L-Ascorbic Acid Derivatives for Melanogenesis Inhibitory Activity” (International Journal of Molecular Sciences, 2018).

What was measured:
[1] = Stability in aqueous solution at elevated temperature (HPLC residual ratio); type: physicochemical; conditions: 20 mg/mL at 125 °C in the dark, after 3 h
Procedure: To determine stability, the samples were stored at 125 °C, and the residual ratio was calculated by measuring the remaining compound by HPLC. HPLC mobile phase conditions were as follows: AsA was described previously, 6 and 20 were 40% methanol containing 0.1% formic acid at flow rate of 0.2 mL/min [52, 53].

[2] = Cell viability of B16 melanoma 4A5 cells; type: cell-based, murine; conditions: mouse, B16 4A5 cells
Procedure: (§1) The effects on theophylline-stimulated melanogenesis and viability of B16 melanoma 4A5 cells were examined according to previously described protocols. Briefly, murine B16 melanoma 4A5 cells were seeded into 48-well plates in DMEM. After 24 h of culture, a test compound and theophylline (1 mM) were added and incubated for 72 h. The melanin content and cell viability were then measured. IC50 values were determined graphically.

B16 melanoma 4A5 cells = experiment: Theophylline-stimulated melanogenesis inhibition (melanin content); type: cell-based, murine; conditions: Mus musculus, 72 h; for IC50: theophylline (1 mM)-stimulated B16 melanoma 4A5 cells
Procedure: as §1
Inhibition (%) was calculated using the following formula, where A and B indicate the optical density of the vehicle- and test compound-treated groups, respectively, and C indicates cell viability (%) (see below): Inhibition (%) = [(A − B)/A]/(C/100) × 100.

TRP-2 mRNA = experiment: Expression of TRP-2 mRNA (qRT-PCR); type: cell-based, murine; conditions: B16 4A5 cells, theophylline 1 mM, 72 h
Procedure: (§2) The expression of tyrosinase, TRP-1, and TRP-2 mRNA was assessed according to previously reported methods. Briefly, murine B16 melanoma 4A5 cells were seeded into 96-well plates in DMEM. After 24 h of culture, a test compound and theophylline (1 mM) were added and incubated for 72 h. Then, the amount of each mRNA was quantified by quantitative reverse transcription PCR.

tyrosinase from mushroom = experiment: Mushroom tyrosinase activity; type: biochemical
Procedure: Tyrosinase activities using L-tyrosine or L-DOPA as a substrate were determined according to the protocols described previously. Briefly, samples, L-tyrosine (2.5 mM, or L-DOPA, 3.0 mM), mushroom tyrosinase (46 units/mL), and phosphate buffer were mixed in a 96-well plate and incubated at 25 °C. (L-tyrosine; 30 min, L-DOPA; 5 min). The absorbance was then measured at 492 nm.

mammalian tyrosinase = target: T1, mammalian tyrosinase (Mus musculus, UniProt P11344); experiment: Mammalian tyrosinase activity (B16 cell lysate, L-DOPA); type: biochemical, murine; conditions: L-DOPA as substrate
T1 construct: the cells were solubilized using 0.1% Triton X-100; endogenous in cells; host or cells: B16 melanoma cells (lysate, after 72 h of 1 mM theophylline)
T1 sequence (P11344 19-533): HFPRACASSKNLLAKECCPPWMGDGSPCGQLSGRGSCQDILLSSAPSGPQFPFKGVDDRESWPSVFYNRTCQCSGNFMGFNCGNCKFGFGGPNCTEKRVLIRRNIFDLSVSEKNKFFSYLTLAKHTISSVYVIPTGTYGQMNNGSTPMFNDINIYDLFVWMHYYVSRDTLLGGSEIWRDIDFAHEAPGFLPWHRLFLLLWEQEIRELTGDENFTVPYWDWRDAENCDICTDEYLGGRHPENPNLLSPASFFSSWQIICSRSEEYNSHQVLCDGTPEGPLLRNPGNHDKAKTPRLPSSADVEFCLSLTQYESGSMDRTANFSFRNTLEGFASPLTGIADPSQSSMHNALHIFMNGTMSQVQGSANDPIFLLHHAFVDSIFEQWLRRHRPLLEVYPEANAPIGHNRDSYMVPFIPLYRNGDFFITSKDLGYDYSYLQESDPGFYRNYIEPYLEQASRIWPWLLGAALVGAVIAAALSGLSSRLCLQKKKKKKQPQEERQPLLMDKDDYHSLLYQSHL
Procedure: Tyrosinase activity using L-DOPA as a substrate was determined according to protocols described previously. Briefly, B16 cells were seeded into 6-well plates in DMEM. After preculture with theophylline (1 mM) for 72 h, the cells were solubilized using 0.1% Triton X-100. Fifty microliters of each lysate and sample was then mixed with 100 µL 2 mM L-DOPA. After the mixtures were incubated for 30 min at 37 °C, the absorbance of each solution at 492 nm was measured.

tyrosinase mRNA = experiment: Expression of tyrosinase mRNA (qRT-PCR); type: cell-based, murine; conditions: 30 µM, B16 4A5 cells, theophylline 1 mM, 72 h
Procedure: as §2

[3] = tested on: tyrosinase activity in B16 melanoma 4A5 cells; experiment: Tyrosinase activity in cultured B16 cells; type: cell-based, murine; conditions: B16 4A5 cells, L-DOPA as substrate
Procedure: Tyrosinase activity in cultured cells was determined according to protocols described previously with modifications. Briefly, B16 melanoma 4A5 cells (4 × 10^3 cells/100 µL/well) were seeded into 96-well plates in DMEM. After pre-culture with sample and theophylline (1 mM) for 72 h, the cells were solubilized using 0.1% Triton X-100, and then each lysate was mixed with 50 μL 2 mM L-DOPA. After the mixtures were incubated for 1 h at 37 °C, the absorbance of the solution at 492 nm was measured using the microplate reader.

TRP-1 mRNA = experiment: Expression of TRP-1 mRNA (qRT-PCR); type: cell-based, murine; conditions: 30 µM, B16 4A5 cells, theophylline 1 mM, 72 h
Procedure: as §2

tyrosinase protein = experiment: Expression of tyrosinase protein (western blotting); type: cell-based, murine; conditions: B16 4A5 cells, theophylline 1 mM, 72 h
Procedure: The expression of tyrosinase protein was assessed according to a previously reported method. Briefly, murine B16 melanoma 4A5 cells were seeded into 6-well plates in DMEM. After 24 h of culture, a test compound and theophylline (1 mM) were added and incubated for 72 h. The expression of tyrosinase protein then was measured by western blotting.

[4] = theophylline-stimulated B16 4A5 cells

| Residual ratio in aqueous solution [1] [%] | IC50 (B16 melanoma 4A5 cells) [µM] | Inhibition (%) of mushroom tyrosinase (tyrosinase from mushroom; Substrate: L-DOPA, 30 µM) [%] | Inhibition (%) of mushroom tyrosinase (tyrosinase from mushroom; Substrate: L-DOPA, 100 µM) [%] | Inhibition (%) of mushroom tyrosinase (tyrosinase from mushroom; Substrate: L-Tyrosine, 30 µM) [%] | Inhibition (%) of mushroom tyrosinase (tyrosinase from mushroom; Substrate: L-Tyrosine, 100 µM) [%] | Structure (SMILES) | viability at 72 h, 1000 µM [2] [%] | viability at 72 h, 3000 µM [2] [%] | inhibition at 1000 µM (B16 melanoma 4A5 cells; [4]) [%] | inhibition at 3000 µM (B16 melanoma 4A5 cells; [4]) [%] | TRP-2 mRNA/β-actin mRNA (TRP-2 mRNA; 30 µM) | TRP-2 mRNA/β-actin mRNA (TRP-2 mRNA; 100 µM) | viability at 72 h, 100 µM [2] [%] | Tyrosinase mRNA/β-actin mRNA (tyrosinase mRNA) | TRP-1 mRNA/β-actin mRNA (TRP-1 mRNA) | expression of tyrosinase protein (in words) (tyrosinase protein) | inhibition at 100 µM (B16 melanoma 4A5 cells; [4]) [%] | other results |
| --- | --- | --- | --- | --- | --- | --- | --- | --- | --- | --- | --- | --- | --- | --- | --- | --- | --- | --- |
| 9 | > 3000 |  |  |  |  | O=C1O[C@H]([C@@H](O)CO)C(O)=C1O [AsA, L-ascorbic acid] | 104 | 89.2 | -17.4 ± 4 | 3.8 ± 4.7 |  |  |  |  |  |  |  |  |
| 85 | 81.4 | −1.5 ± 1.5 | −1.0 ± 0.7 | −1.5 ± 6.7 | 0.9 ± 1.4 | CCCCCCOC1=C(OCC(O)CO)[C@@H]([C@@H](O)CO)OC1=O (stereo partly shown) [compound 6, 3-O-(2,3-dihydroxypropyl)-2-O-hexyl-AsA] |  |  |  |  | 0.53 ± 0.18 | 0.70 ± 0.06 | 77.1 | 0.60 ± 0.07 | 0.48 ± 0.15 | suppressed tyrosinase protein expression in a concentration-dependent manner | 53.1 ± 3.1 | activity on mammalian tyrosinase (in words) (mammalian tyrosinase): did not show activity; viability at 72 h, 3 µM ([2]; 3 µM): 102%; viability at 72 h, 10 µM ([2]; 10 µM): 96.1%; viability at 72 h, 30 µM ([2]; 30 µM): 88.4%; tyrosinase activity in cultured cells (in words) [3]: decreased tyrosinase activity in cultured cells; inhibition at 3 µM (B16 melanoma 4A5 cells; 3 µM, theophylline-stimulated B16 4A5 cells): -1.8 ± 4.9%; inhibition at 10 µM (B16 melanoma 4A5 cells; 10 µM, theophylline-stimulated B16 4A5 cells): 5.6 ± 2%; inhibition at 30 µM (B16 melanoma 4A5 cells; 30 µM, theophylline-stimulated B16 4A5 cells): 26.2 ± 6% |
| 82 | 117 | −5.7 ± 5.1 | −2.4 ± 4.2 | 1.4 ± 4.7 | −6.1 ± 0.6 | CCCCCCOC1=C(OCC(O)CO)C(=O)O[C@@H]1[C@@H](O)CO (stereo partly shown) [compound 20, 2-O-(2,3-dihydroxypropyl)-3-O-hexyl-AsA] | 60.8 | 44.7 | 94.9 ± 1.5 | 80.9 ± 4.1 | 1.07 ± 0.30 | 0.88 ± 0.25 | 95.3 | 0.72 ± 0.10 | 0.67 ± 0.12 | suppressed tyrosinase protein expression in a concentration-dependent manner | 43.5 ± 2.6 | viability at 72 h, 300 µM ([2]; 300 µM): 83.9%; inhibition at 300 µM (B16 melanoma 4A5 cells; 300 µM, theophylline-stimulated B16 4A5 cells): 77 ± 2.1% |
